Assay results taken from US12662451B2, “Chemical compounds and uses thereof” (GLAXOSMITHKLINE INTELLECTUAL PROPERTY (NO.4) LIMITED, priority 2023, dated 2026).
Read-outs that look alike come from different tables or passages of the source.

What was measured:
[1] = test system: SW48 human colorectal cancer cells; test: Calculated free drug potency in SW48 cell assay, corrected with media free fraction (Example C); assay type: cell-based; conditions: for CC50: Homo sapiens, SW48, SW48 pCC50 corrected with measured free fraction in cell assay media
In short: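 Free drug potency derives from correcting SW48 assay concentrations with the unbound fraction in medium. That fraction came from RED against pH 7.4 PBS, 1 μM nominal compound, 4 h at 37 °C, quantified by LC-MS/MS peak area ratios at T=240 versus T=0 min.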

[2] = test system: SW48 human colorectal cancer cells (MSI-H cancer cells); test: SW48 cell viability, CellTiter-Glo, 120 hours (Example B); conditions: for CC50: Homo sapiens
[3] = target: T1, recombinant full-length WRN protein (1-1432) (Homo sapiens, UniProt Q14191); test: WRN unwinding activity, fluorogenic 384-well assay (Example A); assay type: biochemical; conditions: WRN unwinding activity, 4 hr; Table 2; read-out: 4 hr UNW pIC50 (converted)
T1 construct: recombinant full-length WRN protein (1-1432)
T1 sequence (Q14191 whole entry): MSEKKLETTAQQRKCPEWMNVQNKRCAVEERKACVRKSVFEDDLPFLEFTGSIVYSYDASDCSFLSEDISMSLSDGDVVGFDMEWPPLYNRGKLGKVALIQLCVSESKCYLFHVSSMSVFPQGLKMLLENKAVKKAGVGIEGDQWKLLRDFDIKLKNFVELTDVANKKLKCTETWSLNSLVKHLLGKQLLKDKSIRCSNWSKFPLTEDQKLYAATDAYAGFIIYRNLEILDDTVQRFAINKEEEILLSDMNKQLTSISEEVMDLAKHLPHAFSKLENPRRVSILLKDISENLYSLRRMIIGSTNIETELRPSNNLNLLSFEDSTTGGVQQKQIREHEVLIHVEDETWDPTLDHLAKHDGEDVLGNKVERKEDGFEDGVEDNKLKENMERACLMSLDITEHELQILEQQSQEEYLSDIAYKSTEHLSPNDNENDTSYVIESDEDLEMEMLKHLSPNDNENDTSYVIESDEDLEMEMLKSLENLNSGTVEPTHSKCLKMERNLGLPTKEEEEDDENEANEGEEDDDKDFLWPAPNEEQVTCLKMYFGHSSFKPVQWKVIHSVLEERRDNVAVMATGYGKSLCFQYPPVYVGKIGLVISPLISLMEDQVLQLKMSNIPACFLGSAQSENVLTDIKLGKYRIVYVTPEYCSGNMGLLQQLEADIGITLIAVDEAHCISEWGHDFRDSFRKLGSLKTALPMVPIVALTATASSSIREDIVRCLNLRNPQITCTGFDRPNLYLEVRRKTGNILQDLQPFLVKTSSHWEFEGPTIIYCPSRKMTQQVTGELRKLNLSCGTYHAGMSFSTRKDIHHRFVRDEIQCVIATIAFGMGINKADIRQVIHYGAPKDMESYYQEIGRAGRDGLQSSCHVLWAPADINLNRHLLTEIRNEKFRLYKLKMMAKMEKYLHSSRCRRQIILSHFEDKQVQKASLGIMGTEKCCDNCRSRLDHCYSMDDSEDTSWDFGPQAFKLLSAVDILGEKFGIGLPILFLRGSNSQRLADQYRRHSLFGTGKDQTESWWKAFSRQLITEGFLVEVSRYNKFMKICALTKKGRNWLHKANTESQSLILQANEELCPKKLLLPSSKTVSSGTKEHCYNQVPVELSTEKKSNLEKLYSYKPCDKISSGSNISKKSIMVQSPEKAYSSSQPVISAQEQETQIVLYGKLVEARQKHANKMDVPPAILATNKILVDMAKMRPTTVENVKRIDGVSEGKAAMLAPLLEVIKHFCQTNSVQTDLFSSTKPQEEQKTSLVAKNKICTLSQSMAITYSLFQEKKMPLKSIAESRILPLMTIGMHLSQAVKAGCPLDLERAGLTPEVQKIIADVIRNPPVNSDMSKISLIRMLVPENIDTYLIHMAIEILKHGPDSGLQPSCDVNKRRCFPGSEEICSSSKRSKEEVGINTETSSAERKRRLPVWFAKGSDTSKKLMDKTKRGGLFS
In short: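 Read-out is end-point unwinding of a fluorophore/quencher duplex (ex 525, em 598 nm) after 60 min with 200 μM ATP and 12 nM DNA (2× stocks), EDTA stop. Compound first sat 4 h with 200 pM WRN (2× stock) in pH 8.0 Tris buffer; four-parameter fit gives pIC50.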

[4] = Cell culture media unbound percentage and stability by rapid equilibrium dialysis (Example C); assay type: in vitro ADME; conditions: bovine, cell assay medium (RPMI-1640 with 10% fetal bovine serum), pH 7.4, rapid equilibrium dialysis, 4 hours at 37° C., read-out: Cell Culture Media Binding (% unbound)
In short: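 Percent unbound in cell assay medium came from the LC-MS/MS receiver:donor peak area ratio, with stability taken as the 240 min over 0 min ratio. Set-up: 1 μM nominal compound in medium dialysed against pH 7.4 PBS (100 mM phosphate, 150 mM NaCl), 4 h, 37° C, shaken, in triplicate.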

[5] = SW48, 120 h, read-out: SW48 pCC50, SW48 cell viability, 120 hours incubation (converted), Table 2
[6] = SW48, read-out: SW48 pCC50, measured potency from Example B, as repeated in Table 3 (converted)

| IC50 [3] | fraction unbound at 4 h, 1 µM [4] | Compound | CC50 [1] | CC50 [2, 5] | CC50 [2, 6] | Free Drug SW48 pCC50 ([1]; SW48 pCC50 corrected with measured free fraction in cell assay media) | SW48 pCC50 ([2]; SW48 cell viability, 120 hours incubation, Table 2) | SW48 pCC50 ([2]; measured potency from Example B, as repeated in Table 3) |
| --- | --- | --- | --- | --- | --- | --- | --- | --- |
| 2.51 nM | 0.0481 | Cc1nc2cc(S(=O)(=O)N(C)c3ccc([C@H]4CCC[C@@H](C(=O)Nc5ccc(C(F)(F)F)cc5F)[C@@H]4C(=O)O)nc3)ccc2n1C (relative stereo) [Example 161, rel-(1R,2R,6S)-2-((2-fluoro-4-(trifluoromethyl)phenyl)carbamoyl)-6-(5-((N,1,2-trimethyl-1H-benzo[d]imidazole)-5-sulfonamido)pyridin-2-yl)cyclohexane-1-carboxylic acid] | 38 nM | 794 nM | 794 nM | – | – | – |
| 5.01 nM | 0.0942 | Cc1nc2cc(S(=O)(=O)N(C)c3ccc([C@H]4C[C@@H](OCC5CC6CCC(C5)O6)C[C@@H](C(=O)Nc5ccc(C(F)(F)F)cc5F)[C@@H]4C(=O)O)cc3)ccc2n1C (single isomer, unassigned) [Example 360] | 5.89 nM | 63.1 nM | 63.1 nM | – | – | – |
| 3.98 nM | 0.0553 | CC(=O)N1CCc2cc(S(=O)(=O)N(C)c3ccc([C@H]4CCC[C@@H](C(=O)Nc5ccc(C(F)(F)F)cc5F)[C@@H]4C(=O)O)cc3)ccc21 (single isomer, unassigned) [Example 90] | 69.2 nM | 1260 nM | 1260 nM | – | – | – |
| 1.58 nM | 0.224 | Cc1nc2cc(S(=O)(=O)N(C)c3ccc([C@H]4C[C@@H](N5CCOCC5)C[C@@H](C(=O)Nc5ccc(C(F)(F)F)cc5F)[C@@H]4C(=O)O)cc3)ccc2n1C (single isomer, unassigned) [Example 337] | – | – | – | 7.45 | 6.8 | 6.8 |
| 2 nM | 0.079 | CCO[C@@H]1C[C@H](c2ccc(N(C)S(=O)(=O)c3ccc4c(c3)nc3n4CCCC3)cc2)[C@@H](C(=O)O)[C@H](C(=O)Nc2ccc(C(F)(F)F)cc2F)C1 [Example 279, (1R,2R,4R,6S)-4-ethoxy-2-((2-fluoro-4-(trifluoromethyl)phenyl)carbamoyl)-6-(4-((N-methyl-1,2,3,4-tetrahydrobenzo[4,5]imidazo[1,2-a]pyridine)-7-sulfonamido)phenyl)cyclohexane-1-carboxylic acid] | 10 nM | 126 nM | 126 nM | – | – | – |
| 3.98 nM | 0.176 | Cc1nc2cc(S(=O)(=O)N(C)c3ccc([C@H]4CCC[C@@H](C(=O)Nc5ccc(C(F)(F)F)nc5)[C@@H]4C(=O)O)cc3)ccc2n1C [Example 172, (1R,2R,6S)-2-((6-(trifluoromethyl)pyridin-3-yl)carbamoyl)-6-(4-((N,1,2-trimethyl-1H-benzo[d]imidazole)-5-sulfonamido)phenyl)cyclohexane-1-carboxylic acid] | 219 nM | 1260 nM | 1260 nM | – | – | – |
| 3.98 nM | 0.122 | COC12CC(CO[C@@H]3C[C@H](c4ccc(N(C)S(=O)(=O)c5ccc6c(c5)nc(C)n6C)cc4)[C@@H](C(=O)O)[C@H](C(=O)Nc4ccc(C(F)(F)F)cc4F)C3)(C1)C2 (relative stereo) [Example 332, rel-(1R,2R,4R,6S)-2-((2-fluoro-4-(trifluoromethyl)phenyl)carbamoyl)-4-((3-methoxybicyclo[1.1.1]pentan-1-yl)methoxy)-6-(4-((N,1,2-trimethyl-1H-benzo[d]imidazole)-5-sulfonamido)phenyl)cyclohexane-1-carboxylic acid] | 12.3 nM | 100 nM | 100 nM | – | – | – |
| 1.58 nM | 0.148 | CCO[C@@H]1C[C@H](c2ccc(N(C)S(=O)(=O)c3ccc4[nH]c(C)nc4c3)cc2)[C@@H](C(=O)O)[C@H](C(=O)Nc2ccc(C(F)(F)F)cc2F)C1 [Example 281, (1R,2S,4R,6R)-2-(4-((N,2-dimethyl-1H-benzo[d]imidazole)-5-sulfonamido)phenyl)-4-ethoxy-6-((2-fluoro-4-(trifluoromethyl)phenyl)carbamoyl)cyclohexane-1-carboxylic acid] | 117 nM | 794 nM | 794 nM | – | – | – |
